This is an account of results in patent publication US20220280450A1, “PREVENTION AND TREATMENT OF CORONAVIRUS AND RELATED RESPIRATORY INFECTIONS” (PhilERA New Zealand Ltd., priority 2021, published 2022).

The nature of data set [1]: clinical. Conditions: human, in vivo.
The nature of data set [2]: clinical. Conditions: human, in vivo. This is another data set of the same source.
The conditions of data set [3]: human, in vivo.
Data set [4] concerns Pgp. Kind of data set: Permeability in Caco-2 barrier model. The conditions noted are these: human. As to the method:
(§1) Digoxin was used as marker to check for Pgp activity in the cultures. […] Samples were recovered from receptor compartments after 0, 15, 30, 45, 60, and 120 minutes, and further analyzed by liquid scintillation counting. Samples were also recovered a time 0 and 120 minutes from the donor compartments for mass balance evaluation. Each condition was performed in 3 replicated transwell filters in the presence of the Caco-2 barrier.
(In general: Passage across Caco-2 layers is used to estimate intestinal permeability.)

The subject of the next data set is P-gp. Kind of data set: Permeability in Caco-2 barrier model. Conditions: human. As to the method: as §1
In data set [5] the target is Pgp (Homo sapiens, UniProt P08183). Conditions: PX811019 0.2 mM applied basolaterally.
Chain of Pgp (Homo sapiens, UniProt P08183) (P08183 whole entry): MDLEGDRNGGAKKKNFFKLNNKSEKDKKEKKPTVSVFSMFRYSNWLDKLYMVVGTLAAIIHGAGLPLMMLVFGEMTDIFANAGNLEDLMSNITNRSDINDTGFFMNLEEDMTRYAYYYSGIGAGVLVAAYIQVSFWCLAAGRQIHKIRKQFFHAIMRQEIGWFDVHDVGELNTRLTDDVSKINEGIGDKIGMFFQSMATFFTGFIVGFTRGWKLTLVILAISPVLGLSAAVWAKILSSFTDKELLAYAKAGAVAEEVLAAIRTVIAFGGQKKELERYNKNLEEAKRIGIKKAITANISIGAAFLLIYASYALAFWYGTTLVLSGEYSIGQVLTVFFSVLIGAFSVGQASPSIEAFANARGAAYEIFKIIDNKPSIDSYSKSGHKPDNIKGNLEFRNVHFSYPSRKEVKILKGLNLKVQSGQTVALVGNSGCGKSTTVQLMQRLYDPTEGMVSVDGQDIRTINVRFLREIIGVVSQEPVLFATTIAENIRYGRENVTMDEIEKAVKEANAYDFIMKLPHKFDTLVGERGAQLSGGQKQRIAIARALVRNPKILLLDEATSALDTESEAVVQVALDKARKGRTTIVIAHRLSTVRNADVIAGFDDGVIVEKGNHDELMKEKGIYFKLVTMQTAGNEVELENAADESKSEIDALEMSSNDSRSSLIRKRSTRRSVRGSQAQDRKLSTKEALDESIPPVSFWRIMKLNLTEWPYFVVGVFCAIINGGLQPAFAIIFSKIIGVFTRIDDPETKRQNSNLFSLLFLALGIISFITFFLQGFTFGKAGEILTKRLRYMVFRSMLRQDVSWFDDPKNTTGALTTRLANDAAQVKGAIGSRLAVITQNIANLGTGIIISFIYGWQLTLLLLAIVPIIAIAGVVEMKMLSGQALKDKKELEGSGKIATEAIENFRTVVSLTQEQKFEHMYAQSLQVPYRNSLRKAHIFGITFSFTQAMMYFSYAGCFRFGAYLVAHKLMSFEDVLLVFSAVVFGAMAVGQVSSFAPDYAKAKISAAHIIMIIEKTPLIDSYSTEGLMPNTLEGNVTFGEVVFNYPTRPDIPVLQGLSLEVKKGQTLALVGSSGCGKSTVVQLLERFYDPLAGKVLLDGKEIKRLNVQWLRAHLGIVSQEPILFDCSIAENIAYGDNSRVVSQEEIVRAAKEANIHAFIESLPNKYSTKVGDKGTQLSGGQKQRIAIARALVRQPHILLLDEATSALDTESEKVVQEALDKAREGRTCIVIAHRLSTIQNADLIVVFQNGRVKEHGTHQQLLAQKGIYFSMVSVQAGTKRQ
The subject of another data set is urinary copper excretion. The conditions noted are these: in vivo, po.
Where [6] appears, read: population mean (% CV in table).

Several values for one entry are separate records, joined by “and”; a condition that tells them apart may be missing. Equal entries are not always repeated.

What is called CL/F is clearance divided by bioavailability, as obtained after extravascular dosing. For orientation: Tmax means the time from dosing to the highest level. Turning to `CC(=O)NCCNCCNCCNC(C)=O` [DAT, N1,N10-diacetyltriethylenetetramine], for the setting “estimate (% CV in table)”, the “Inter-individual variability of CLD/F/frM/frD” value was 55.9% and 55.9 (18.1) [1.5] %; the “Inter-individual variability of VP,D/F/frM/frD” value is 86.8% and 86.8 (29.4) [2.7] %. The “Apparent volume for DAT, VP,D/F/frM/frD” value under setting [6] was 197 L and 197 (17.7) L. Further, the CL/F in “clinical [1]” was 5100 mL/min. In addition, the Tmax in “clinical [2]” was in the range of 5 to 6 h. Besides, in data set [3], the “Cmax of DAT relative to MAT” value is 3-4 fold lower.

As usually defined, the Papp B→A is how fast a substance crosses the layer from the basolateral side. Broadly, the efflux ratio is a quotient of directional permeabilities that is used to spot active efflux. The compound `C[C@H]1O[C@@H](O[C@H]2[C@@H](O)C[C@H](O[C@H]3[C@@H](O)C[C@H](O[C@H]4CC[C@@]5(C)[C@H](CC[C@@H]6[C@@H]5C[C@@H](O)[C@]5(C)[C@@H](C7=CC(=O)OC7)CC[C@]65O)C4)O[C@@H]3C)O[C@@H]2C)C[C@H](O)[C@@H]1O` [Digoxin] yielded a Papp B→A in the data set with Pgp [4] of 6.08 ×10⁻⁶ cm/s. Further, in the data set with P-gp, the efflux ratio turned out to be 8.06. The “Papp B-A of Digoxin in presence of PX811019” value on Pgp [5] was 5.68±3.03×10^−6 cm/s.

In the case of `CC(=O)NCCNCCNCCN` [MAT, N1-acetyltriethylenetetramine], where the note is “estimate (% CV in table)”, the “Inter-individual variability of CLM/F/frM” value is 41.5% and 41.5 (15.1) [2.9] %; the “Inter-individual variability of VP,M/F/frM” value is 55.1% and 55.1 (17.4) [2.7] %. Moreover, under setting [6], the “Apparent volume for MAT, VP,M/F/frM” value is 426 L and 426 (9.8) L; the “Mean transit time for MAT formation” value is 0.381 h and 0.381 (34.2) h. This compound also had a CL/F in “clinical [1]” of 1270 mL/min.

Turning to `NCCNCCNCCN.O=C(O)CCC(=O)O.O=C(O)CCC(=O)O` [PX811019, triethylenetetramine disuccinate], the Tmax in “clinical [2]” fell in the range of 1.25 to 2 h. Besides, in the data set with urinary copper excretion, the “Level of cupriuresis versus dose” value is “approximately the same at 435 and 1305 mg PX811019 and increased at the highest dose of 2175 mg”.

On to `NCCNCCNCCN` [TETA, triethylenetetramine], for which the “Increase of model predicted VT,T/F for every 100 mg difference from the 750 mg dose” value (human, in vivo) is 6.37%. For the same compound, under “in vivo”, the “Inter-individual variability of SL · ER0” value was 58.1% and 58.1 (25.1) [7.8] %; the “Slope (SL) of copper excretion versus TETA concentration” value is on record as 41.8 (mg/L)^−1. Besides, in the data set “clinical [1]”, the CL/F is 2350 mL/min.
